We go through three compounds from paper PMC7076875 (2020).

The subject of this experiment is apt 32 (DNA, aptamer) AAAAAAAAAAAAGGGCACGTGTTGTCTCTCTGTGTCTCGTGCCC
As to the kind of experiment: lateral flow strip, competition with complementary strand. Particulars: 120 mM NaCl, 5 mM KCl, 200 mM MgCl2; 10 mM Tris pH 7.4, 5% methanol, room temperature; immobilised probe 2 competes; tested at 100 ng/mL.

As to `C[C@H]1CCCC(=O)CCC/C=C/c2cc(O)cc(O)c2C(=O)O1`, the binding entry is “no”.

Regarding `CCCC[C@@H](C)[C@@H](OC(=O)C[C@@H](CC(=O)O)C(=O)O)[C@H](C[C@@H](C)C[C@H](O)CCCC[C@@H](O)C[C@H](O)[C@H](C)N)OC(=O)C[C@@H](CC(=O)O)C(=O)O`, the binding result was “no”.

Consider `C[C@@H]1Cc2c(Cl)cc(C(=O)N[C@@H](Cc3ccccc3)C(=O)O)c(O)c2C(=O)O1`, for which the binding result is reported as “no”.
